Measurements reported in BindingDB's records for doi:10.1016/j.bmc.2009.08.051 (Kyoto Prefectural University, 2009).

Experiments:
DNA polymerase beta = DNA polymerase beta (Rattus norvegicus, UniProt P06766); assay: DNA Polymerase Assay; conditions: pH 7.5; 37 °C
Method: (§1) For the DNA polymerase reaction, the dehydroaltenusin derivative was dissolved in dimethyl sulfoxide (DMSO) at various concentrations and sonicated for 30 s. Four microlitres of each sonicated sample were mixed with 16 uL of enzyme (final 0.05 units) in reaction buffer, and kept at 0 deg C for 10 min. These inhibitor-enzyme mixtures were added to 16 uL of each enzyme standard reaction mixture containing DNA template-primer and nucleotide, and incubated at 37 deg C for 60 min. Activity without the inhibitor was considered 100%, and the remaining activity at each concentration of the inhibitor was determined relative to this value. One unit of pol activity was defined as the amount of enzyme that catalyzed the incorporation of 1 nmol of dNTP (i.e., dTTP) into synthetic DNA template-primer in 60 min at 37 deg C under the normal reaction conditions.

DNA polymerase = DNA polymerase (Bos taurus, UniProt A0AAA9TD94); assay: DNA Polymerase Assay; conditions: pH 7.5; 37 °C
Method: as §1

Row | SMILES | IC50 (DNA polymerase beta) | IC50 (DNA polymerase)
1 | CCCOc1cc(O)c2c(c1)C1=CC(=O)C(=O)CC1(C)OC2=O (stereo not given) [dehydroaltenusin derivative, 14] | 35 µM | 180 nM
2 | CCCCCCOc1cc(O)c2c(c1)C1=CC(=O)C(=O)CC1(C)OC2=O (stereo not given) [dehydroaltenusin derivative, 15] | 24 µM | 90 nM
3 | CCCCCCCCCCCCOc1cc(O)c2c(c1)C1=CC(=O)C(=O)CC1(C)OC2=O (stereo not given) [dehydroaltenusin derivative, 16] | 11 µM | 60 nM
4 | CC12CC(=O)C(=O)C=C1c1cccc(O)c1C(=O)O2 (stereo not given) [dehydroaltenusin derivative, 20] | 89 µM | 240 nM
5 | COc1cc(O)c2c(=O)oc3cc(OCc4ccccc4)c(OCc4ccccc4)cc3c2c1 [dehydroaltenusin derivative, 25] | > 200 µM | > 200000 nM
6 | COc1cc(O)c2c(=O)oc3cc(O)c(O)cc3c2c1 [dehydroaltenusin derivative, 26] | > 200 µM | > 200000 nM
7 | COc1cc(O)c2c(c1)C1=CC(=O)C=CC1(C)OC2=O (stereo not given) [dehydroaltenusin derivative, 31] | > 200 µM | > 200000 nM
8 | CC12C=CC(=O)C=C1c1cccc(O)c1C(=O)O2 (stereo not given) [dehydroaltenusin derivative, 32] | > 200 µM | > 200000 nM
9 | COc1cc(O)c2c(c1)C1=CC(=O)C(=O)CC1(C)OC2=O (stereo not given) [dehydroaltenusin] | 64 µM | 680 nM
10 | CC12CC(=O)C(=O)C=C1c1cc(O)cc(O)c1C(=O)O2 (stereo not given) [desmethyldehydroaltenusin, 2] | 126 µM | 890 nM
